System: ERISU (Conyza sumatrensis, Sumatran fleabane)
Assay: Greenhouse post-emergence foliar weed control trial, visual injury score 0-100 percent
Assay type: in vivo
Details: 400 gai/ha
From the text: Results in Examples are greenhouse trial results.
Seeds or nutlets of the desired test plant species were planted in a soil matrix prepared by mixing a loam or sandy loam soil (e.g., 28.6 percent silt, 18.8 percent clay, and 52.6 percent sand, with a pH of about 5.8 and an organic matter content of about 1.8 percent) and calcareous grit in an 80 to 20 ratio. The soil matrix was contained in plastic pots with a volume of 1 quart and a surface area of 83.6 cm2. When required to ensure good germination and healthy plants, a fungicide treatment and/or other chemical or physical treatment was applied. The plants were grown for 8-22 days in a greenhouse with an approximate 14 h photoperiod which was maintained at about 29° C. during the day and 26° C. during the night. Nutrients (Peters Excel® 15-5-155-Ca 2-Mg and iron chelate) were applied in the irrigation solution as needed and water was added on a regular basis. Supplemental lighting was provided with overhead metal halide 1000-Watt lamps as necessary. The plants were employed for testing when they reached the first through fourth true leaf stage.
Treatments comprised of the acid or esters of halauxifen-methyl (methyl 4-amino-3-chloro-6-(4-chloro-2-fluoro-3-methoxyphenyl)picolinate), each formulated as an SC (suspension concentrate), and various herbicidal components alone and in combination. A form of the compound of Formula I were applied on an acid equivalent basis.
Treatment requirements were calculated based upon the rates being tested, the concentration of active ingredient or acid equivalent in the formulation, and a 12 mL application volume at a rate of 187 L/ha.
For treatments comprised of formulated and technical compounds, weighed amounts of the technical materials were placed individually in 25 mL glass vials and dissolved in a volume of 97:3 v/v acetone/DMSO to obtain 12× stock solutions, and measured amounts of the formulated compounds were placed individually in 25 mL glass vials and diluted in a volume of 1.5% (v/v) crop oil concentrate or water to obtain 12× stock solutions. […] As required, additional water and/or 97:3 v/v acetone/DMSO was added to individual application solutions so that the final acetone and DMSO concentrations of the application solutions being compared were 8.1% and 0.25%, respectively.
All stock solutions and applications solutions were visually inspected for compound compatibility prior to application. Spray solutions were applied to the plant material with an overhead Mandel track sprayer equipped with an 8002E nozzle calibrated to deliver 187 L/ha over an application area of 0.503 m2 at a spray height of 18 to 20 inches (46 to 50 cm) above average plant canopy height. Control plants were sprayed in the same manner with the solvent blank.
The treated plants and control plants were placed in a greenhouse as described above and watered by sub-irrigation to prevent wash-off of the test compounds. […]
Table 1 illustrates weed control for foliar applications of compositions comprising halauxifen-methyl+2,4-D-dimethylammonium (2,4-D-DMA)+paraquat on various broadleaf weeds. […] The compositions disclosed herein can be used in burndown and fallow crop applications or in herbicide tolerant crops. These compositions can be used for broad-spectrum control of broadleaf weeds including, but not limited to, ALS, auxinic, HPPD, PPO, glufosinate and glyphosate resistant broadleaf weeds. The compositions disclosed herein can have utility in AAD1 and AAD12 monocot and dicot crops whereby there is crop tolerance to all 3 modes of action, providing growers with a solution to control susceptible and resistant broadleaf weeds, as well as to delay the development of resistance by the use of 3 modes of action product. The compositions disclosed herein can be used in non-crop and R&P/IVM situations, post directed in perennial crops, and potentially across many crops where there is tolerance to all 3 modes of action.

Question: What does the source list for `C[n+]1ccc(-c2cc[n+](C)cc2)cc1` [paraquat, 1-methyl-4-(1-methylpyridin-1-ium-4-yl)pyridin-1-ium]?
Answer: Chem 2 Actual Mean % Weed Control (Trial 1, 17DAA): 32.50%; Chem 2 Actual Mean % Weed Control (Trial 1, 28DAA): 52.50%; Chem 2 Actual Mean % Weed Control (Trial 1, 43DAA): 60.00%; Chem 2 Actual Mean % Weed Control (Trial 2, 17DAA): 52.50%; Chem 2 Actual Mean % Weed Control (Trial 2, 28DAA): 55.00%; Chem 2 Actual Mean % Weed Control (Trial 2, 43DAA): 65.00%

Reference: US20220015362A1, “COMPOSITIONS COMPRISING HALAUXIFEN AND OTHER HERBICIDES AND METHODS THEREOF” (DOW AGROSCIENCES LLC, priority 2018, published 2022)
